Each compound was assayed against PD-1/PD-L1 (Homo sapiens (Human), UniProt Q9NZQ7) (assay: PD-1/PD-L1 Homogeneous Time-Resolved Fluorescence (HTRF) Binding Assay). Conditions: recombinant human PD-1 (3 nM) and PD-L1 (10 nM), 25° C., PBS pH 7.4.
How it was run: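 Fc-tagged human PD-1 (25-167, 3 nM) and His-tagged PD-L1 (19-238, 10 nM) preincubated with inhibitor 40 min in PBS pH 7.4, 0.05% Tween-20, 0.1% BSA, 1% DMSO, 25 °C. Binding detected by HTRF (Eu anti-IgG/APC anti-His, 665/620 nm) after 60 min; IC50 from percent control activity.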

Chain of PD-1/PD-L1 (Q9NZQ7 19-238): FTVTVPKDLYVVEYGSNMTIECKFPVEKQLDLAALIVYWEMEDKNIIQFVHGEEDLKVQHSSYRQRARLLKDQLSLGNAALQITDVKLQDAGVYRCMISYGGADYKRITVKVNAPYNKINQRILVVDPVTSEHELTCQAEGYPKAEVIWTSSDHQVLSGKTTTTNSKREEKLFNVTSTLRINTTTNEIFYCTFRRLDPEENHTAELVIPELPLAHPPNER

| Structure (SMILES) | IC50 [nM] |
| --- | --- |
| Cc1c(-c2nc3c(o2)CN(C(=O)CN2CCC(O)CC2)C3)cccc1-c1cccc(-c2nc3cc(CN4CC[C@@H](C(=O)O)C4)cc(C#N)c3o2)c1C [Example 250, (R)-1-((7-cyano-2-(3′-(5-(2-(4-hydroxypiperidin-1-yl)acetyl)-5,6-dihydro-4H-pyrrolo[3,4-d]oxazol-2-yl)-2,2′-dimethyl-[1,1′-biphenyl]-3-yl)benzo[d]oxazol-5-yl)methyl)pyrrolidine-3-carboxylic acid] | ≤ 10 |
| Cc1c(-c2nc3cc(CN4CCC(C(=O)O)CC4)cc(C#N)c3o2)cccc1-c1cccc(NC(=O)c2nc3c(n2C)CCN(C[C@@H](C)O)C3)c1Cl [Example 155, (R)-1-((2-(2′-chloro-3′-(5-(2-hydroxypropyl)-1-methyl-4,5,6,7-tetrahydro-1H-imidazo[4,5-c]pyridine-2-carboxamido)-2-methylbiphenyl-3-yl)-7-cyanobenzo[d]oxazol-5-yl)methyl)piperidine-4-carboxylic acid] | ≤ 10 |
| Cc1c(NC(=O)c2nc3c(n2C)CCN(C2CC2)C3)cccc1-c1cccc(-c2nc3cc(CN4CC[C@H](C(=O)O)C4)cc(C#N)c3o2)c1C [Example 39, (S)-1-((7-cyano-2-(3′-(5-cyclopropyl-1-methyl-4,5,6,7-tetrahydro-1H-imidazo[4,5-c]pyridine-2-carboxamido)-2,2′-dimethylbiphenyl-3-yl)benzo[d]oxazol-5-yl)methyl)pyrrolidine-3-carboxylic acid] | ≤ 10 |
| Cc1c(-c2nc3cc(CN4CC[C@@H](C(=O)NCCO)C4)cc(C#N)c3o2)cccc1-c1cccc(-n2cc3c(n2)CN(C(C)C)CC3)c1Cl [Example 104, (R)-1-((2-(2′-chloro-3′-(6-isopropyl-4,5,6,7-tetrahydro-2H-pyrazolo[3,4-c]pyridin-2-yl)-2-methylbiphenyl-3-yl)-7-cyanobenzo[d]oxazol-5-yl)methyl)-N-(2-hydroxyethyl)pyrrolidine-3-carboxamide] | ≤ 10 |
| Cc1c(Nc2nccc3cc(CNCCO)cnc23)cccc1-c1cccc(-c2nc3cc(CN4CC[C@@](C)(C(=O)O)C4)cc(C#N)c3o2)c1C [Example 189, (R)-1-((7-cyano-2-(3′-(3-((2-hydroxyethylamino)methyl)-1,7-naphthyridin-8-ylamino)-2,2′-dimethylbiphenyl-3-yl)benzo[d]oxazol-5-yl)methyl)-3-methylpyrrolidine-3-carboxylic acid] | ≤ 10 |
